The nature of this data set: Stability of indirubin prodrugs in simulated fluids (FaSSIF, FaSSGF), 24 h at 37° C., UPLC-MS. The class given is physicochemical. How it is done: 10.41 g fasted state simulated intestinal fluid (FaSSIF) buffer concentrate was dissolved in 240.3 g deionized water and 560 mg FaSSIF powder added. The mixture was stirred until complete dissolution observed. The test compound (approx. 1-3 mg) was placed in 5.00 mL of FaSSIF solution. Samples of the solution with the test compound were taken after 24 hours in at 37° C. (oven-controlled temperature).
36.78 g fasted state simulated gastric fluid (FaSSGF) buffer concentrate was dissolved in 961.9 g deionized water and 60 mg FaSSGF powder added. The mixture was stirred until complete dissolution observed. The test compound (approx. 1-3 mg) was placed in 5.00 mL of FaSSGF solution. Samples of the solution with the test compound were taken after 24 hours in at 37° C. (oven-controlled temperature).
UPLC-MS analysis of the samples taken at 24 hours was carried out on a Waters Acquity UPLC system consisting of an Acquity I-Class Sample Manager-FL, Acquity I-Class Binary Solvent Manager and an Acquity UPLC Column Manager. UV detection was afforded using an Acquity UPLC PDA detector (scanning from 210 to 400 nm), whilst mass detection was achieved using an Acquity QDa detector (mass scanning from 100-1250 Da; positive and negative modes simultaneously), and ELS detection was achieved using an Acquity UPLC ELS Detector. A Waters Acquity UPLC BEH C18 column (2.1 Å˜50 mm, […]) was used to separate the analytes. Samples were prepared by dissolution (with or without sonication) into 1 mL of 50% (v/v) MeCN in water. The resulting solutions were then filtered through a […] syringe filter before submitting for analysis. All of the solvents, including formic acid and 36% ammonia solution, were purchased as the HPLC grade.

The structures appear in SMILES notation.

`O=C(O)CCC(=O)OCN1C(=O)/C(=C2\Nc3ccccc3C2=O)c2ccccc21`: where the note is “FaSSGF 37° C. 24 h”, the “Fraction (percent) of indirubin” value is on record as 0% and the “Fraction (percent) of starting material (SM)” value (“Fraction (percent) … (SM)” for short) was 100%. In addition, where the note is “FaSSIF 37° C. 24 h”, the “Fraction (percent) of indirubin” value is recorded as 0% and the “Fraction (percent) … (SM)” value was 100%.
For the compound `CS(=O)(=O)NCCNC(=O)N1C(=O)/C(=C2\Nc3ccccc3C2=O)c2ccccc21`, for the setting “FaSSGF 37° C. 24 h”, the “Fraction (percent) of indirubin” value is given as 0% and the “Fraction (percent) … (SM)” value was 100%. Moreover, under “FaSSIF 37° C. 24 h”, the “Fraction (percent) of indirubin” value is on record as 0% and the “Fraction (percent) … (SM)” value is listed as 100%.
`CC(=O)NCCNC(=O)N1C(=O)/C(=C2\Nc3ccccc3C2=O)c2ccccc21`: for the setting “FaSSGF 37° C. 24 h”, the “Fraction (percent) of indirubin” value was 0% and the “Fraction (percent) … (SM)” value was 100%. Moreover, for the setting “FaSSIF 37° C. 24 h”, the “Fraction (percent) of indirubin” value is given as 0% and the “Fraction (percent) … (SM)” value is reported as 100%.
Take `CCOC(=O)CCC(=O)N1C(=O)/C(=C2\Nc3ccccc3C2=O)c2ccccc21`: for the setting “FaSSGF 37° C. 24 h”, the “Fraction (percent) of indirubin” value is listed as 0% and the “Fraction (percent) … (SM)” value was 100%. Further, where the note is “FaSSIF 37° C. 24 h”, the “Fraction (percent) of indirubin” value is on record as 0% and the “Fraction (percent) … (SM)” value is recorded as 100%.
Take `CCCCCCCCCCC(=O)N1C(=O)/C(=C2\Nc3ccccc3C2=O)c2ccccc21`: the “Fraction (percent) of indirubin” value was 0% (FaSSGF 37° C. 24 h) and 0% (FaSSIF 37° C. 24 h). Further, the “Fraction (percent) … (SM)” value reads like this: (FaSSGF 37° C. 24 h) 100%; (FaSSIF 37° C. 24 h) 100%.
For the compound `O=C1/C(=C2/C(=O)N(C(=O)NCCNS(=O)(=O)c3ccc([N+](=O)[O-])cc3)c3ccccc32)Nc2ccccc21`, where the note is “FaSSGF 37° C. 24 h”, the “Fraction (percent) of indirubin” value is on record as 0% and the “Fraction (percent) … (SM)” value was 100%. Further, where the note is “FaSSIF 37° C. 24 h”, the “Fraction (percent) of indirubin” value was 0% and the “Fraction (percent) … (SM)” value is 100%.
Take `O=C1Nc2ccccc2/C1=C1/Nc2ccccc2/C1=N\O`: for the setting “FaSSGF 37° C. 24 h”, the “Fraction (percent) of indirubin” value was 0% and the “Fraction (percent) … (SM)” value was 100%. Moreover, for the setting “FaSSIF 37° C. 24 h”, the “Fraction (percent) of indirubin” value is 0% and the “Fraction (percent) … (SM)” value is on record as 100%.
Regarding `CN(C)CCNC(=O)N1C(=O)/C(=C2\Nc3ccccc3C2=O)c2ccccc21`, for the setting “FaSSGF 37° C. 24 h”, the “Fraction (percent) of indirubin” value was 0% and the “Fraction (percent) … (SM)” value is 100%. In addition, under “FaSSIF 37° C. 24 h”, the “Fraction (percent) of indirubin” value was 0% and the “Fraction (percent) … (SM)” value is listed as 100%.
On to `O=C1/C(=C2/C(=O)N(COS(=O)(=O)O)c3ccccc32)Nc2ccccc21` [drawing 224], for which, where the note is “FaSSIF 37° C. 24 h”, the “Fraction (percent) of indirubin” value is on record as 100% and the “Fraction (percent) … (SM)” value was 0%.
For `CN(C)CCCCNC(=O)N1C(=O)/C(=C2\Nc3ccccc3C2=O)c2ccccc21`, the “Fraction (percent) of indirubin” value reads like this: (FaSSGF 37° C. 24 h) 0%; (FaSSIF 37° C. 24 h) 0%. Further, the “Fraction (percent) … (SM)” value reads like this: (FaSSGF 37° C. 24 h) 100%; (FaSSIF 37° C. 24 h) 100%.

Values taken from patent US12516022B2, “Derivatives of aryl hydrocarbon receptor agonists” (AZORA THERAPEUTICS, INC., priority 2021, dated 2026).
